Results taken from patent US6448405B1, “Steroid receptor modulator compounds and methods” (Ligand Pharmaceuticals Incorporated, priority 1994, dated 2002).

How the values were obtained:
[1] = molecular target: T1, human mineralocorticoid receptor (MR) (Homo sapiens, UniProt P08235); test: Co-transfection assay, MR antagonist activity, CV-1 cells (pRShMR); type: cell-based; conditions: antagonist mode; for MR Antagonist CV-1 Cells Efficacy (%): Table 4, % maximal inhibition; for IC50: aldosterone at its EC50, read-out: MR Antagonist CV-1 Cells Potency
T1 construct: expressed in transfected cells; host or cells: CV-1 cells, transient transfection
T1 sequence (P08235 1-984): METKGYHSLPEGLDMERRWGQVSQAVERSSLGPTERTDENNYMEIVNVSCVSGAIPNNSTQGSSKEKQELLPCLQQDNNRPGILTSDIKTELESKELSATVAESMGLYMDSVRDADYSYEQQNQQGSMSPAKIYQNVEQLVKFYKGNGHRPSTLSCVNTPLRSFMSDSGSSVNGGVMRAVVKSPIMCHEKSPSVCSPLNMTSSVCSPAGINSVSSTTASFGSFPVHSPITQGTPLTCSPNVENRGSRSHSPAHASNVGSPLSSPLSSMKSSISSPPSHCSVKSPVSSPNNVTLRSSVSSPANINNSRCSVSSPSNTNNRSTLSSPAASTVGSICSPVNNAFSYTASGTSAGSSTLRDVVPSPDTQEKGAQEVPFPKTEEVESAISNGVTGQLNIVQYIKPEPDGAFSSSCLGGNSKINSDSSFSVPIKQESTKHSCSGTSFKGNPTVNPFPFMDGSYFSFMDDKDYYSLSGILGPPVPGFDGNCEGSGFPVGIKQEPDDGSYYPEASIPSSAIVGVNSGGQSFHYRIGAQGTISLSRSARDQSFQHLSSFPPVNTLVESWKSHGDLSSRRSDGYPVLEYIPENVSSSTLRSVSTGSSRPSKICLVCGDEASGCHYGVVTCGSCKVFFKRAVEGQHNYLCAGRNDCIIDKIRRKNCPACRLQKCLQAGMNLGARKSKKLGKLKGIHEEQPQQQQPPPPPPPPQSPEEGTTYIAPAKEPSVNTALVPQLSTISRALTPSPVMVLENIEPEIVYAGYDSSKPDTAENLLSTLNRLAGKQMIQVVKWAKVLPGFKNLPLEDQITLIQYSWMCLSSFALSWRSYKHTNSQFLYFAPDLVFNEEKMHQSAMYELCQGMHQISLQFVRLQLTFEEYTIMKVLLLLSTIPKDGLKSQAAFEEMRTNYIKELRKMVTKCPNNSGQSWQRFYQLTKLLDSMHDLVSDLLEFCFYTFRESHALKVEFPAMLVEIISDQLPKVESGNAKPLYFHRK

[2] = molecular target: T2, human glucocorticoid receptor alpha (GRα) (Homo sapiens, UniProt P04150); test: GR binding assay, baculovirus extract, [3H] dexamethasone; conditions: competition with [3H] dexamethasone, 4° C., 16 hours; read-out: GR Binding K1
T2 construct: made in house; crude extract used
T2 sequence (P04150 1-777): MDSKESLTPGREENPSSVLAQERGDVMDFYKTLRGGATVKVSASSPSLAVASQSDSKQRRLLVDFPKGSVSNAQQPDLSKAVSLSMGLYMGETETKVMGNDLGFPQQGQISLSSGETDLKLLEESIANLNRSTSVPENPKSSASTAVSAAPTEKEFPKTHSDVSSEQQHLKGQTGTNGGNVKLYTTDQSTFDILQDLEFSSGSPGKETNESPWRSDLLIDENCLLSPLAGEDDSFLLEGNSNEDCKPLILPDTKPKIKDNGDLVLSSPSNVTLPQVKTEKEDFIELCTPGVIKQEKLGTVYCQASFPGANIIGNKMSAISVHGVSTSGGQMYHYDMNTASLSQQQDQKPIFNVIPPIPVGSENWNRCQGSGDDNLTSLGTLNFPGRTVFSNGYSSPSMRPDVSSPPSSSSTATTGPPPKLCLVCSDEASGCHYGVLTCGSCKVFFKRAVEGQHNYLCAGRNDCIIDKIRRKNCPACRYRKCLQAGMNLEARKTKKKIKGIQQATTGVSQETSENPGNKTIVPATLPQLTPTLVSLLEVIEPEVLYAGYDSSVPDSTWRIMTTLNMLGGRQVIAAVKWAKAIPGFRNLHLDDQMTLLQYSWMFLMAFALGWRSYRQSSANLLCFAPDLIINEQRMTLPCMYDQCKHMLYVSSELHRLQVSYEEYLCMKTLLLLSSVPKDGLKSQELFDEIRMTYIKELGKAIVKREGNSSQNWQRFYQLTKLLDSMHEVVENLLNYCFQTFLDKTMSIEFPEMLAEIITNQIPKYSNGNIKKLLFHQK

[3] = molecular target: T3, human progesterone receptor A form (PR-A) (Homo sapiens, UniProt P06401); test: PR binding assay, baculovirus extract, [3H] progesterone; conditions: read-out: PR Binding Ki
T3 sequence (P06401 1-769 isoform P06401-2): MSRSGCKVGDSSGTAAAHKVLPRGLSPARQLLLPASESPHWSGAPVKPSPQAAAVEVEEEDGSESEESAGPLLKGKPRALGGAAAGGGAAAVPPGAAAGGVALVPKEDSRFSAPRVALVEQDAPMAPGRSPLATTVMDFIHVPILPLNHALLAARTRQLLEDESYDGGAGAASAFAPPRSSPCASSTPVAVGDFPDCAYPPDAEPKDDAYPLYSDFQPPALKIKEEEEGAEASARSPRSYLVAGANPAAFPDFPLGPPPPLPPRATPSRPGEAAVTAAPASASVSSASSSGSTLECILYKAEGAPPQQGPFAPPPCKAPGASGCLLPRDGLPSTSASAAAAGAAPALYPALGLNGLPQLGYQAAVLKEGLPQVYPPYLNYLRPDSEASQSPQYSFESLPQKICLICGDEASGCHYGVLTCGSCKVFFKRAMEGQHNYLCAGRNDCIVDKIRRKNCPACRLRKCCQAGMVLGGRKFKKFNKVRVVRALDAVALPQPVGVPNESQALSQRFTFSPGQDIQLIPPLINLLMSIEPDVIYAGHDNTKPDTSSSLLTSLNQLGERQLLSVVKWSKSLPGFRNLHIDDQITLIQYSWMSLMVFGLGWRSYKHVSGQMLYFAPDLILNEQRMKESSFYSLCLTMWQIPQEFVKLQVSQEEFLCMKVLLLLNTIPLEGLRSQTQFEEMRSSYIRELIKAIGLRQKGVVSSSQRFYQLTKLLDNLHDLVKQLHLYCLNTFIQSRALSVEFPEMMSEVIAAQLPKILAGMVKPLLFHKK

[4] = molecular target: T4, human glucocorticoid receptor (GR) (Homo sapiens, UniProt P04150); test: Co-transfection assay, GR antagonist activity, CV-1 cells (pRShGR); type: cell-based; conditions: antagonist mode; for GR Antagonist CV-1 Cells Efficacy (%): Table 4, % maximal inhibition; for IC50: dexamethasone at its EC50, read-out: GR Antagonist CV-1 Cells Potency
T4 construct: expressed in transfected cells; host or cells: CV-1 cells, transient transfection
T4 sequence (P04150 1-777): T2 sequence (P04150 1-777)

Row | SMILES | MR Antagonist CV-1 Cells Efficacy (%) [1] | IC50 [1] | Ki [2] | Ki [3] | GR Antagonist CV-1 Cells Efficacy (%) [4] | IC50 [4]
1 | CC1=CC(C)(C)Nc2ccc3c(c21)C(c1cccc(C(F)(F)F)c1)Oc1ccccc1-3 (racemic) [Compound 195, (R/S) 1,2-Dihydro-2,2,4-trimethyl-5-[3-(trifluoromethyl)phenyl]-5H-chromeno[3,4-f]quinoline] | 47% | 1.9 µM | 0.026 µM | 0.003 µM | 96% | 0.59 µM
2 | CC1=CC(C)(C)Nc2ccc3c(c21)C(c1ccccc1)Oc1ccccc1-3 (racemic) [Compound 161, (R/S)-1,2-Dihydro-2,2,4-trimethyl-5-phenyl-5H-chromeno[3,4-f]quinoline] | 58% | 1 µM | 0.137 µM | 0.003 µM | 97% | 0.6 µM
